Test results taken from article PMC5727842, “Antioxidant and Antidiabetic Effects of Flavonoids: A Structure-Activity Relationship Based Study” (BioMed Research International, 2017).

Tests used:
[1] = DPPH radical scavenging assay; details: 30 min, 517 nm, mean ± SEM (n = 3)
Method: Each sample's stock solution was diluted to final concentrations of 1000–0.4889 μg/mL in MeOH. A total of 1 mL of a 0.3 mM DPPH methanolic solution was added to 2.5 mL of sample solution of different concentrations and allowed to react at room temperature. After 30 min, the absorbance (Abs) values were measured at 517 nm with a microplate reader (Tecan NanoQuant Infinite M200, Switzerland) and converted into the percentage antioxidant activity using the following equation described previously: (1) % antioxidant activity=100−Abssample−Abssample blank/Abscontrol−Abscontrol blank×100. MeOH + compound solution was used as a blank, while DPPH solution plus MeOH was used as a negative control. The positive controls were DPPH solution plus 1 mM ascorbic acid. The IC50 values were calculated by linear regression of plots. The average percent of scavenging capacity was taken from three replicates.

[2] = Rapid screening of radical scavenging activity by dot blot assay (DPPH staining); details: silica sheet stained with DPPH in MeOH, dilutions from 1000 μg/mL
Method: An aliquot (20 μL) of each dilution of each group was carefully loaded on a […] TLC plate and allowed to dry for 10 min. Drops of each sample were loaded in the order of decreased concentration along the 16 columns. The staining of the silica plate was based on the procedure of Soler-Rivas et al.. […] The intensity of the yellow color depends upon the amount and nature of radical scavenger present in the flavonoids.

[3] = target: T1, xanthine oxidase from buttermilk (Bos taurus, UniProt P80457); test: Xanthine oxidase inhibitory assay (XOI); type: biochemical; details: for xanthine oxidase inhibitory effect (in words): discussion
T1 construct: 0.3 U/mL enzymes (xanthine oxidase from buttermilk); purchased Sigma-Aldrich (Singapore); host or cells: buttermilk (natural source)
Method: XO catalyzes the oxidation of hypoxanthine to xanthine and subsequently to uric acid. The inhibition of XO reduces both vascular oxidative stress and circulating levels of uric acid. This assay is based on the fact that the superoxide anions are generated by the xanthine. The xanthine oxidase inhibitory activity was measured spectrophotometrically (Tecan NanoQuant Infinite M200, Switzerland) at 295 nm under aerobic condition with slight modification. The reaction mixture contained 50 mM phosphate buffer (pH 7.5), 0.15 mM xanthine (substrate), and 0.3 U/mL enzymes (xanthine oxidase from buttermilk). Samples were prepared by dissolving 1 mg in 5% DMSO in MeOH which gives sample concentration of 144.0 μg/mL in assay. […] The absorption increment at 295 nm indicates the formation of […] of uric acid/min at 25°C. […] All determination was done in triplicate and half maximal concentration (IC50) values were calculated from the percentage of inhibition. XO inhibition activity was expressed as the percentage inhibition of XO as follows:(3) % of inhibition=AbsA−B−C−D/AbsA−B×100, where A is the negative control with B as the blank of A which is without the enzyme and the sample while C is the activity of the sample with enzyme with D as the blank of the sample without enzyme.

[4] = ABTS+ radical scavenging assay; details: 734 nm, mean ± SEM (n = 3)
Method: An improved ABTS^+ radical decolorization assay was carried out involving direct production of the blue/green ABTS^+ chromophore through the reaction between ABTS and potassium persulfate. Addition of antioxidant to the preformed radical cation reduces it to ABTS to an extent on a time scale depending on the antioxidant activity, the concentration of the antioxidant, and the duration of the reaction. 1 ml ABTS was dissolved in water to make 7 mM concentration of the resultant solution. […] The resultant reaction mixture was allowed to stand in the dark at room temperature for 12–16 h before being used. The ABTS^+ radical solution was diluted with MeOH to an absorbance of 0.7 (±0.02) at 734 nm. Then, 100 μl of sample at various concentrations (1000–0.4889 μg/mL) was mixed with 100 μL of diluted ABTS^+ radical. Each concentration was analyzed in triplicate and the percentage decrease of absorbance at 734 nm with a microplate reader (Tecan NanoQuant Infinite M200, Switzerland) was calculated for each point and the antioxidant capacity of the tested compounds was expressed as percent inhibition (%). The radical scavenging activity of the compounds was measured according to the following equation [29]:(2) % inhibition=Acontrol−Asample/Acontrol×100. IC50 values were calculated by linear regression of plots, and the average percent of scavenging capacity was taken from three replicates. Trolox was used as a standard in comparison for the determination of the antioxidant activity of the flavonoids.

[5] = Ferric reducing antioxidant power (FRAP); details: for FRAP (AAE μg): ascorbic acid equivalent, mean ± SEM (n = 3), Table 2
Method: This assay was based on the reduction of the ferric tripyridyltriazine (Fe III-TPTZ) complex to the ferrous ion (Fe II) at a low pH forming an intense blue color. In the FRAP assay, compounds that are rich in antioxidant effect exert their action by breaking the free radical chain by donating a hydrogen atom. Briefly, ferric reducing antioxidant power (FRAP) reagent (2.5 mL of a 10 mM TPTZ solution in 40 mM HCl, 2.5 mL of 20 mM FeCl3, and 25 mL of 0.1 M acetate buffer pH 3.6) was prepared and incubated for 10 min at 37°C. Then 20 μL of each compound and ascorbic acid (standard) and 40 μL of FRAP reagent were added to 140 μL of distilled water in a 96-well plate producing a blue-colored solution. The solutions were kept at room temperature for 20 min in the dark and then measured at 593 nm with a microplate reader (Tecan, Switzerland) using a reagent blank composed of 40 μL of FRAP reagents in 200 μL of distilled water. A calibration curve was prepared with a serial dilution of ascorbic acid (standard). The total antioxidant capacity was calculated by interpolating the measured absorbance of the calibration curve and expressed as ascorbic acid equivalents. The results were corrected for dilution and expressed as AAE μg of ascorbic acid/g.

DPP-4 = target: T2, DPP-4 (Homo sapiens, UniProt P27487); test: Dipeptidyl peptidase IV (DPP-4) inhibitory assay; type: biochemical; details: Table 3; mean ± SEM (n = 3); NA: not active
T2 construct: purchased Cayman (Michigan, USA)
Method: Dipeptidyl peptidase (IV) inhibitors work by inhibiting the action of this enzyme, thereby prolonging the activity of incretins that play an important role in insulin secretion and blood glucose control regulation. DPP-4 inhibitory assay was performed as per the standard method (Cayman, USA). Firstly, 1 mg of sample was dissolved in 10% of DMSO and MeOH as the stock solution. For initial activity (100%), 10 μL of MeOH, 30 μL of diluted assay buffer, and 10 μL of diluted DPP-4 (Cayman, USA) were added to 96-well microplate. […] For background well, 10 μL of MeOH and 40 μL of diluted assay buffer were added. Then, 10 μL of prepared sample and 30 μL of diluted assay buffer were added with 10 μL of diluted DPP-4. After that, 50 μL of substrate solution was added to all wells to initiate the reaction and further incubated in the dark at 37°C for 30 min. Finally, plate was read at 360 nm of excitation wavelength and 465 nm of emission wavelength using fluorescence microplate reader (Perkin Elmer, Germany). All determinations were done in triplicate and half maximal concentration (IC50) values were calculated from the percentage of inhibition based on the linear regression analysis. The equation given below was applied to calculate the inhibitory activity (%):(5) Inhibitory activity%=Initial Activity−Sample/Initial Activity×100%.
For DPP-4 inhibitory assay, the reaction is based on the cleavage of the peptide bond by DPP releasing the free Gly-Pro-aminomethylcoumarin group, a fluorogenic substrate resulting in fluorescence excitation and emission.

[6] = target: α-glucosidase from Saccharomyces cerevisiae; test: α-Glucosidase inhibitory assay; type: biochemical; details: Table 3; mean ± SEM (n = 3); NA: not active
Method: α-Glucosidase inhibitory activity of the flavonoids was carried out according to the standard method with minor modification. […] A solution of 30 mM phosphate buffer (pH 6.5) was used to prepare stock solution of the sample to form a final concentration of 160 μg/mL. Then, 10 μL/well of sample was mixed with 15 μL/well of α-glucosidase from Saccharomyces cerevisiae (Megazyme, Ireland). 50 mM buffer (pH 6.5) was used to prepare the enzyme solution. Then, 115 μL/well of 30 mM buffer (pH 6.5) was added and incubated for 5 min at room temperature. Then, 75 μL/well of PNP-glucoside was added to initiate reaction and incubated at room temperature for 15 min. Finally, about 50 μL glycine at pH 10 was added to stop the reaction. The final volume of 250 μL of compound, positive control, enzyme, 30 mM buffer, and substrate was located in 96-well microplate. The absorbance (Abs) was measured using microplate reader (Tecan NanoQuant Infinite M200, Switzerland) at 405 nm to represent the amount of p-nitrophenol released from PNP-glucoside. […] The equation given below was used to calculate the inhibitory activity (%):(4) Inhibitory activity%=Abs control−Abs sample/Abs control×100%.
Tested on yeast α-glycosidase, the reaction is initiated by reacting the inhibitor (sample) with the α-glycosidase enzyme that competes with […] for the binding site, thus releasing ρ-nitrophenol which was measured in the assay.

T2 sequence (P27487 whole entry): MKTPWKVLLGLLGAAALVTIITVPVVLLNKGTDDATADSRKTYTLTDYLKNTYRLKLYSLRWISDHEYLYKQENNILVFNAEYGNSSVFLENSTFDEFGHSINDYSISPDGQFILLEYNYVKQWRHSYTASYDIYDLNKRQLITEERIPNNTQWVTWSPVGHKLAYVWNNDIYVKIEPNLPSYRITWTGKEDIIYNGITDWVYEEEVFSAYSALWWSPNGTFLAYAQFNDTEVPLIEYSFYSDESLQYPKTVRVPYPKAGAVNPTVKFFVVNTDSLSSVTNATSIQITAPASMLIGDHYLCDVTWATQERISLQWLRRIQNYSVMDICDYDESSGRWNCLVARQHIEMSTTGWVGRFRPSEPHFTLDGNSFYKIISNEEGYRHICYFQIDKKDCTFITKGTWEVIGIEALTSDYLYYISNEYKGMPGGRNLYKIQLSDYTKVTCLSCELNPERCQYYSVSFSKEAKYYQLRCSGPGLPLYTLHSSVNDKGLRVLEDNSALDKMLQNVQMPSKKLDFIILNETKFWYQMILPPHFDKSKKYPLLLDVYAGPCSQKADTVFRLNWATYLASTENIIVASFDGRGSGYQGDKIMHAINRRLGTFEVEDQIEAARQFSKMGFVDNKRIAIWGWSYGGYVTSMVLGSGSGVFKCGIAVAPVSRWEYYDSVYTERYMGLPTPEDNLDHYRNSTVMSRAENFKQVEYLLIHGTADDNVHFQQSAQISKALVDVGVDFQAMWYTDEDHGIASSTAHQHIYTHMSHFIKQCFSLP
T1 sequence (P80457 whole entry): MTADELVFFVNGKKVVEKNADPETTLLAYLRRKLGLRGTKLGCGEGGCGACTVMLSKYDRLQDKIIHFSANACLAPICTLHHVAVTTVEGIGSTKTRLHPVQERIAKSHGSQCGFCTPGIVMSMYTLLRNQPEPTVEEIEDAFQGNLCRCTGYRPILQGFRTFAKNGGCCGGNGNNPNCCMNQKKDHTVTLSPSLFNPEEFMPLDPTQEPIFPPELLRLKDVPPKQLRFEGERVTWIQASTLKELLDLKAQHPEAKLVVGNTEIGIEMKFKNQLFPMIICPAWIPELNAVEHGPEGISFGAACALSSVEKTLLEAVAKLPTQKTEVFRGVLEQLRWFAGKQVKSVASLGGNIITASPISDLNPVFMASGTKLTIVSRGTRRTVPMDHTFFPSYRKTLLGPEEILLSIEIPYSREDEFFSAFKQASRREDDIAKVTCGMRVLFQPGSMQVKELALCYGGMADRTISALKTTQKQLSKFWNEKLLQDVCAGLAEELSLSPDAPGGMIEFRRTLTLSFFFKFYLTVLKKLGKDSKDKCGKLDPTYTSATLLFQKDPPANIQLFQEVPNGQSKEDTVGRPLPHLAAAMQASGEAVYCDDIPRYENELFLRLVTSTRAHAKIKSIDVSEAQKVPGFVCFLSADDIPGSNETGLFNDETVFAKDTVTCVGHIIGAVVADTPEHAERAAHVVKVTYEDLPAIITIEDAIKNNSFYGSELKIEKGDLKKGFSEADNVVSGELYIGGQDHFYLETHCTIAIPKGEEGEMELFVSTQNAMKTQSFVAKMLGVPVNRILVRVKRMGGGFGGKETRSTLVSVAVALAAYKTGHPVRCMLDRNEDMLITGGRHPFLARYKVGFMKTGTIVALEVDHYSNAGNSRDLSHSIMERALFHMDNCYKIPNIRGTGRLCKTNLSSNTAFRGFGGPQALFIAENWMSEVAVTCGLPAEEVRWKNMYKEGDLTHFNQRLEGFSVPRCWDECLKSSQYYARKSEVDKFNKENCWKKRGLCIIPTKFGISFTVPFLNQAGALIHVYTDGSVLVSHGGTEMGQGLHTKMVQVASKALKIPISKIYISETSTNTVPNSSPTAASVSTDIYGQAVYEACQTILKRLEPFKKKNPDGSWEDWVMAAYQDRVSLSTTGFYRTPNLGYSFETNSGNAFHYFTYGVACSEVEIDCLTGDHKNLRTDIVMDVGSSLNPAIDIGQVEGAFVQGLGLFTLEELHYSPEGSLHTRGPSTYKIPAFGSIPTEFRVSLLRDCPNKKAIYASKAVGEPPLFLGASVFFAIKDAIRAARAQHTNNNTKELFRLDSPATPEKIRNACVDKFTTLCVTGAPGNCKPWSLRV

Structure (SMILES)	IC50 DPPH [1]	radical scavenging activity by dot blot (intensity of yellow spots) [2]	xanthine oxidase inhibitory effect (in words) [3]	IC50 ABTS+ [4]	FRAP antioxidant capacity [5]	FRAP (AAE μg) [5]	IC50 (DPP-4)	IC50 α-Glucosidase [6]	IC50 ([3]; xanthine oxidase inhibition, 295 nm, mean ± SEM (n = 3), NA: not active)
Oc1cc(O)c2c(c1)O[C@H](c1ccc(O)c(O)c1)[C@@H](O)C2 [(+)-Catechin]	14.34 ± 1.55^EF µg/ml	strong radical scavenging activity	inactive	0.62 ± 0.05^G µg/ml	152.07 ± 1.95 AAE μg of ascorbic acid/g	148.12 ± 4.40^C AAE μg			
Oc1cc(O)c2c(c1)O[C@H](c1ccc(O)c(O)c1)[C@H](O)C2 [(−)-Epicatechin]	9.92 ± 0.33^F µg/ml	strong radical scavenging activity	inactive	0.70 ± 0.08^G µg/ml	152.14 ± 7.30 AAE μg of ascorbic acid/g	152.07 ± 1.95^C AAE μg			
CC(=O)Oc1cc(OC(C)=O)c2c(=O)cc(-c3ccccc3)oc2c1OC(C)=O [Acetate (norwogonin), 5,7,8-Triacetoxyflavone]	>100^B µg/ml	did not show any spot		78.99 ± 66.5^C µg/ml	39.63 ± 1.01 AAE μg of ascorbic acid/g	39.63 ± 1.01^E AAE μg	> 252 µM		
COc1c(OC(C)=O)cc(OC(C)=O)c2c(=O)cc(-c3ccccc3)oc12 [Acetate (wogonin), 5,7-Diacetoxy-8-methoxyflavone]	>200^A µg/ml	did not show any spot		>200^A µg/ml	5.06 ± 3.24 AAE μg of ascorbic acid/g	5.06 ± 3.24^G AAE μg		>100^A µg/mg	
O=C1O[C@H]([C@@H](O)CO)C(O)=C1O [Ascorbic acid, ascorbic acid, reference compound]	4.75 ± 0.91^GHa µg/ml				114.58 AAE μg of ascorbic acid/g	114.58 ± 0.27^Da AAE μg			
O=c1cc(-c2ccc(O)cc2)oc2c(O)c(O)cc(O)c12 [Isoscutellarein, 4′,5,7,8-Tetrahydroxyflavone]	5.23 ± 0.53^GHa µg/ml	strong radical scavenging activity	low xanthine oxidase inhibitory activity	1.73 ± 0.06^FG µg/ml		262.91 ± 4.99^A AAE μg	77.7 µM		> 349 µM
O=c1c(O)c(-c2ccc(O)cc2)oc2cc(O)cc(O)c12 [Kaempferol, 4′,3,5,7-Tetrahydroxyflavone]	10.89 ± 0.86^EF µg/ml	strong radical scavenging activity	significant xanthine oxidase inhibitory effect	1.36 ± 0.22^FG µg/ml	265.65 ± 5.46 AAE μg of ascorbic acid/g	265.65 ± 5.46^A AAE μg	160 µM		
COc1cc(OC)c2c(=O)cc(-c3ccccc3)oc2c1OC [Methyl ether (wogonin), 5,7,8-Trimethoxyflavone]	>200^A µg/ml	did not show any spot		>200^A µg/ml	1.68 ± 0.18 AAE μg of ascorbic acid/g	1.68 ± 0.18^G AAE μg	> 320 µM		
O=c1c(O)c(-c2ccc(O)c(O)c2)oc2cc(O)cc(O)c12 [Quercetin, 3,3′,4′,5,7-Pentahydroxyflavone]	7.76 ± 0.99^FG µg/ml	strong radical scavenging activity	significant xanthine oxidase inhibitory effect	0.83 ± 0.01^FG µg/ml	148.12 ± 4.40 AAE μg of ascorbic acid/g	138.93 ± 6.22^C AAE μg	72 µM		
Cc1c(C)c2c(c(C)c1O)CCC(C)(C(=O)O)O2 (stereo not shown) [Trolox, trolox, reference compound]				1.76 ± 0.15^^FG µg/ml					
